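Each compound was tested at five concentrations against cells in 96-well plates for 48 hours. Definition used: TGI = concentration required for complete inhibition of growth.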
Columns and labels:
Experiment in all cases: NCI anticancer screen, dose series, 48 h
EKVX NSCLC = tested on: EKVX NSCLC
HOP-62 NSCLC = tested on: HOP-62 NSCLC
TK-10 renal = tested on: TK-10 renal
SNB-75 CNS = tested on: SNB-75 CNS
CCRF-CEM leukemia = tested on: CCRF-CEM leukemia
M14 melanoma = tested on: M14 melanoma
MDA-N = tested on: MDA-N
OVCAR-5 ovarian = tested on: OVCAR-5 ovarian
MOLT-4 leukemia = tested on: MOLT-4 leukemia
NCI-H460 lung = tested on: NCI-H460 lung
DU-145 prostate = tested on: DU-145 prostate
MCF7 breast = tested on: MCF7 breast
MALME-3M melanoma = tested on: MALME-3M melanoma
NCI/ADR-RES ovarian = tested on: NCI/ADR-RES ovarian
K-562 leukemia = tested on: K-562 leukemia
UACC-257 melanoma = tested on: UACC-257 melanoma
T-47D breast = tested on: T-47D breast
SR leukemia = tested on: SR leukemia
OVCAR-4 ovarian = tested on: OVCAR-4 ovarian
ACHN renal = tested on: ACHN renal
NCI-H226 lung = tested on: NCI-H226 lung
SNB-19 CNS = tested on: SNB-19 CNS
SK-MEL-2 melanoma = tested on: SK-MEL-2 melanoma
HOP-92 NSCLC = tested on: HOP-92 NSCLC
HCT-15 colon = tested on: HCT-15 colon
SF-295 CNS = tested on: SF-295 CNS
SK-MEL-5 melanoma = tested on: SK-MEL-5 melanoma
A549 NSCLC = tested on: A549 NSCLC
OVCAR-3 ovarian = tested on: OVCAR-3 ovarian
HCC-2998 colon = tested on: HCC-2998 colon
COLO 205 colon = tested on: COLO 205 colon
U251 CNS = tested on: U251 CNS
RPMI-8226 leukemia = tested on: RPMI-8226 leukemia
KM12 colon = tested on: KM12 colon
UACC-62 melanoma = tested on: UACC-62 melanoma
LOX IMVI melanoma = tested on: LOX IMVI melanoma
MDA-MB-231 breast = tested on: MDA-MB-231 breast
CAKI-1 renal = tested on: CAKI-1 renal
OVCAR-8 ovarian = tested on: OVCAR-8 ovarian
SK-MEL-28 melanoma = tested on: SK-MEL-28 melanoma
A498 renal = tested on: A498 renal
PC-3 prostate = tested on: PC-3 prostate
HS 578T breast = tested on: HS 578T breast
HCT-116 colon = tested on: HCT-116 colon
SF-268 CNS = tested on: SF-268 CNS
BT-549 breast = tested on: BT-549 breast
MDA-MB-435 = tested on: MDA-MB-435
IGROV1 ovarian = tested on: IGROV1 ovarian
SK-OV-3 ovarian = tested on: SK-OV-3 ovarian
NCI-H522 lung = tested on: NCI-H522 lung
SN12C renal = tested on: SN12C renal
NCI-H23 lung = tested on: NCI-H23 lung
786-0 renal = tested on: 786-0 renal
HT29 colon = tested on: HT29 colon
SW-620 colon = tested on: SW-620 colon
UO-31 renal = tested on: UO-31 renal
RXF 393 renal = tested on: RXF 393 renal
HL-60(TB) leukemia = tested on: HL-60(TB) leukemia
SF-539 CNS = tested on: SF-539 CNS

Measured: TGI

COc1ccc(N2C(=O)C3c4[nH]c5ccccc5c4C4CCC(C(C)C)CC4C3C2=O)cc1 (stereo unspecified)
not listed: RXF 393 renal | HL-60(TB) leukemia | SF-539 CNS
> 100 µM: all other assays above

C/C=C/C=C/C1=NN(c2cccc(S(=O)(=O)O)c2)C2(C1)SCC(=O)N2c1nc2ccccc2s1 (stereo unspecified)
51.8 µM: LOX IMVI melanoma
42.3 µM: 786-0 renal
87.6 µM: SR leukemia
77.7 µM: CCRF-CEM leukemia
not listed: HOP-62 NSCLC | SF-295 CNS | OVCAR-3 ovarian | SK-OV-3 ovarian
> 100 µM: all other assays above

Reference: PubChem BioAssay (NCI)
